Results on three compounds are retold here after patent EP4775208A1, “USE OF PRMT5 INHIBITOR IN TREATMENT OF TUMORS OR CANCERS” (Apeiron Therapeutics (Hong Kong) Ltd., priority 2023, dated 2025).

Data set [1] relates to HCT-116 MTAP(-/-) deficient cells. Nature of the data set: Inhibition of proliferation of HCT-116 MTAP(-/-) deficient cells (Cell-Titer Glo). Type of data set: cell-based. To be noted: Homo sapiens, HCT-116, 192 h, 8 days. The method, boiled down:
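Cells in log-phase growth, RPMI-1640 with 10% FBS, seeded and left overnight at 37°C, 5% CO2. Compound tested at 0–10,000 nM (10 points, 3-fold, 0.1% DMSO) for 8 days at 37°C, 5% CO2. Viability read by CellTiter-Glo luminescence.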

The nature of data set [2]: Mouse pharmacokinetic experiment (IV and PO, plasma). In kind it is in vivo, ICR male mice. The note with it: male, mouse, plasma; ICR mice, PO(10mg/kg) vs IV(3mg/kg); read-out: Bioavailability F (%). As for the experimental part: II. Mouse Pharmacokinetic Experiment
The compounds used in this experiment are specific embodiments of the present invention, with reference to compound AMG473 as an example from Amgen's patent WO 2022/169948A1, identified as example 473.
ICR male mice, N=3/group; sourced from Zhejiang Vital River Laboratory Animal Technology Co., Ltd.
3. Drug Preparation and Administration
Single oral (PO) administration to ICR mice: Compounds were dissolved in dimethyl sulfoxide, added to polyethylene glycol 400 and sterile water, and then adjusted to a clear solution with a small amount of 1 mol/L hydrochloric acid. After overnight fasting, the mice were orally gavaged with a dose of 10 mg/kg. Single intravenous (IV) administration to ICR mice: Compounds were dissolved in dimethyl sulfoxide, added to polyethylene glycol 400 and sterile water, and then adjusted to a clear solution with a small amount of 1 mol/L hydrochloric acid. After overnight fasting, the mice received tail vein injections with a dose of 3 mg/kg.
Approximately 30 µL/time point blood samples were collected via the tail vein. Potassium ethylenediaminetetraacetate was used as an anticoagulant, and samples were centrifuged at 4000 g/min for 5 minutes at 4°C within 1 hour. Blood sampling time points were 0.0833 (IV), 0.25, 0.5, 1, 2, 4, 6, 8, 24 hours. Samples were stored in a -20°C freezer.
Plasma samples (30µL, 10µL sample + 20µL blank plasma) were mixed with 200µL ice-cold acetonitrile containing internal standards. After vortexing for 30 seconds, samples were centrifuged at 4000g/min for 20 minutes. One hundred microliters of the supernatant were transferred to a 96-well plate, followed by the addition of 200µL ultrapure water. After vortexing for 30 seconds, 5µL or 10µL were injected into LC-MS/MS for analysis. Table 7: Pharmacokinetic Data

Data set [3] relates to HCT-116 MTAP wild-type cells. Nature of the data set: Inhibition of proliferation of HCT-116 MTAP wild-type cells (Cell-Titer Glo). In kind it is cell-based. To be noted: Homo sapiens, HCT-116, 192 h, 8 days. The gist of the method: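 MTAP wild-type HCT-116 cells were seeded, cultured overnight and then exposed to compound from 10,000 nM down in a 10-point, 3-fold series (0.1% DMSO). Plates were incubated 8 days at 37°C, 5% CO2. Proliferation was read by Cell-Titer Glo viability luminescence.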

For data set [4], the system named is LN18 MTAP-overexpressing cells. Description: Inhibition of proliferation of LN18 MTAP-overexpressing cells (CellTiter-Glo). The note with it: Homo sapiens, LN-18, 168 h, cell proliferation, 7 days. Type of data set: cell-based. From the text: Test 6: Assay for Inhibitory Activity of Compounds against LN18 MTAP-Overexpressing Cell Proliferatio
Materials and Cells: The LN18 MTAP-overexpressing cell line was purchased from Cobioer Biosciences (China). Cell culture media, fetal bovine serum (FBS), and penicillin-streptomycin were purchased from Thermo Fisher Scientific (USA). 384-well plates were purchased from PerkinElmer (USA). The CellTiter-Glo assay kit was purchased from Promega (USA).
Cell Culture: LN18 MTAP-overexpressing cells were cultured in a medium supplemented with 10% fetal bovine serum (FBS) and 1% penicillin-streptomycin at 37°C with 5% CO2. Only cells in the logarithmic growth phase were used for experiments.
(§1) Cell Proliferation Inhibition Assay: The antiproliferative activity of the compounds against LN18 MTAP-overexpressing cells was assessed using the CellTiter-Glo assay kit. Cell suspensions were adjusted to the appropriate density and seeded into 384-well plates at a volume of 40 µL per well, then incubated overnight at 37°C with 5% CO2. Compounds (40 nL) were added to each well to achieve final concentrations ranging from 0 to 10,000 nM (starting concentration 10,000 nM, 3-fold serial dilutions, 9 dose points), with a final DMSO concentration of 0.25%. The cell plates were incubated at 37°C with 5% CO2 for 7 days. Subsequently, 40 µL of CellTiter-Glo reagent was added to measure cell viability.

Another data set has as its system U87MG MTAP(-/-) cells. Nature of the data set: Inhibition of proliferation of U87MG MTAP(-/-) cells (CellTiter-Glo). Type of data set: cell-based. To be noted: Homo sapiens, U-87 MG, 144 h, cell proliferation, 6 days. The method, then:
Test 7: Assay for Inhibitory Activity of Compounds against U87MG MTAP(-/-) Cell Proliferation
Materials and Cells: The U87MG MTAP(-/-) cell line was purchased from ATCC (USA). Cell culture media, fetal bovine serum (FBS), and penicillin-streptomycin were purchased from Thermo Fisher Scientific (USA). 384-well plates were purchased from PerkinElmer (USA). The CellTiter-Glo assay kit was purchased from Promega (USA).
Cell Culture: U87MG MTAP(-/-) cells were cultured in a medium supplemented with 10% fetal bovine serum (FBS) and 1% penicillin-streptomycin at 37°C with 5% CO2. Only cells in the logarithmic growth phase were used for experiments.
as §1, with “against U87MG MTAP(-/-)” for “against LN18 MTAP-overexpressing”, “dilutions, 10” for “dilutions, 9”, “of […].” for “of 0.25%.”, “for 6” for “for 7”, “viability. Paclitaxel was used as a control compound.” for “viability.”

The test system of the next data set is LN18 MTAP(-/-) cells. Description: Inhibition of proliferation of LN18 MTAP(-/-) cells (CellTiter-Glo). In kind it is cell-based. To be noted: Homo sapiens, LN-18, 168 h, cell proliferation, 7 days. As for the experimental part: Test 5: Assay for Inhibitory Activity of Compounds against LN18 MTAP(-/-) Cell Proliferation
Materials and Cells: The LN18 MTAP(-/-) cell line was provided by Cobioer Biosciences (China). Cell culture media, fetal bovine serum (FBS), and penicillin-streptomycin were purchased from Thermo Fisher Scientific (USA). 384-well plates were purchased from PerkinElmer (USA). The CellTiter-Glo assay kit was purchased from Promega (USA).
Cell Culture: LN18 MTAP(-/-) cells were cultured in a medium supplemented with 10% fetal bovine serum (FBS) and 1% penicillin-streptomycin at 37°C with 5% CO2. Only cells in the logarithmic growth phase were used for experiments.
as §1, with “MTAP(-/-)” for “MTAP-overexpressing”, “1,000” for “10,000”
(In general: ATP-based viability assays read luminescence as a measure of living cells.)

Another data set relates to BxPc-3. Nature of the data set: Mini cell panel: inhibition of proliferation of BxPc-3 cells. Type of data set: cell-based. The note with it: Homo sapiens, BXPC-3, MTAP (-/-). The source says: (§2) Test 9: Mini Cell Panel: Assay for Inhibitory Activity of Compounds against Proliferation of 20 Tumor Cell Lines
(§3) Materials and Cells: Fifteen MTAP(-/-) cell lines and five MTAP wild-type cell lines were purchased from ATCC (USA). Cell culture media, fetal bovine serum (FBS), and penicillin-streptomycin were purchased from Thermo Fisher Scientific (USA). 384-well plates were purchased from PerkinElmer (USA). The CellTiter-Glo assay kit was purchased from Promega (USA). Paclitaxel was used as the control compound.

The next data set has as its system LN-18. Nature of the data set: Mini cell panel: inhibition of proliferation of LN-18 cells. Type of data set: cell-based. The note with it: Homo sapiens, LN-18, MTAP (-/-).
From the text: as §2, §3

In another data set the test system is MKN-45. Description: Mini cell panel: inhibition of proliferation of MKN-45 cells. Type of data set: cell-based. The note with it: Homo sapiens, MKN-45, MTAP (-/-).
From the text: as §2, §3

The test system of another data set is ACHN. Nature of the data set: Mini cell panel: inhibition of proliferation of ACHN cells. Type of data set: cell-based. The note with it: Homo sapiens, ACHN, MTAP (-/-).
From the text: as §2, §3

The next data set concerns SW1573. Nature of the data set: Mini cell panel: inhibition of proliferation of SW1573 cells. Type of data set: cell-based. To be noted: Homo sapiens, SW1573, MTAP (-/-).
From the text: as §2, §3

A further data set deals with Calu-1. Description: Mini cell panel: inhibition of proliferation of Calu-1 cells. Type of data set: cell-based. The note with it: Homo sapiens, Calu-1, MTAP Wild type.
From the text: as §2, §3

For another data set, the system named is SK-MEL-5. Nature of the data set: Mini cell panel: inhibition of proliferation of SK-MEL-5 cells. In kind it is cell-based. The note with it: Homo sapiens, MTAP (-/-).
From the text: as §2, §3

For the next data set, the system named is LU99. Nature of the data set: Mini cell panel: inhibition of proliferation of LU99 cells. Type of data set: cell-based. The note with it: Homo sapiens, Lu-99, MTAP (-/-).
From the text: as §2, §3

The test system of the next data set is NCI-H647. Nature of the data set: Mini cell panel: inhibition of proliferation of NCI-H647 cells. Type of data set: cell-based. The note with it: Homo sapiens, NCI-H647, MTAP (-/-).
From the text: as §2, §3

The next data set deals with SU-DHL-10. Description: Mini cell panel: inhibition of proliferation of SU-DHL-10 cells. Type of data set: cell-based. The note with it: Homo sapiens, SU-DHL10, MTAP Wild type.
From the text: as §2, §3

The test system of the next data set is SU-DHL-4. Nature of the data set: Mini cell panel: inhibition of proliferation of SU-DHL-4 cells. The note with it: Homo sapiens, SU-DHL-4, MTAP Wild type. Type of data set: cell-based.
From the text: as §2, §3

A further data set concerns A549. Description: Mini cell panel: inhibition of proliferation of A549 cells. In kind it is cell-based. The note with it: Homo sapiens, A549, MTAP (-/-).
From the text: as §2, §3

A further data set concerns SW780. Description: Mini cell panel: inhibition of proliferation of SW780 cells. To be noted: Homo sapiens, SW780, MTAP (-/-). Type of data set: cell-based.
From the text: as §2, §3

For another data set, the system named is CFPAC-1. Description: Mini cell panel: inhibition of proliferation of CFPAC-1 cells. Type of data set: cell-based. To be noted: Homo sapiens, CFPAC-1, MTAP Wild type.
From the text: as §2, §3

The subject of another data set is Aspc-1. Description: Mini cell panel: inhibition of proliferation of Aspc-1 cells. In kind it is cell-based. The note with it: Homo sapiens, ASPC1, MTAP Wild type.
From the text: as §2, §3

For another data set, the system named is U87MG. Nature of the data set: Mini cell panel: inhibition of proliferation of U87MG cells. Type of data set: cell-based. The note with it: Homo sapiens, U-87 MG, MTAP (-/-).
From the text: as §2, §3

Another data set concerns MDA-MB-231. Nature of the data set: Mini cell panel: inhibition of proliferation of MDA-MB-231 cells. Type of data set: cell-based. The note with it: Homo sapiens, MDA-MB-231, MTAP (-/-).
From the text: as §2, §3

The next data set concerns DOHH-2. Nature of the data set: Mini cell panel: inhibition of proliferation of DOHH-2 cells. Type of data set: cell-based. The note with it: Homo sapiens, DOHH-2, MTAP (-/-).
From the text: as §2, §3

The test system of the next data set is PSN-1. Nature of the data set: Mini cell panel: inhibition of proliferation of PSN-1 cells. Type of data set: cell-based. To be noted: Homo sapiens, PSN1, MTAP (-/-).
From the text: as §2, §3

As usually defined, the IC50 is the concentration needed to halve the response being measured. Read a low IC50 as inhibition by little substance. The term bioavailability denotes the share of a dose that reaches the circulation, judged against a reference dose that is usually intravenous. As to `CN(C(=O)c1ccc2nc(N)c3cncn3c2c1)[C@@H]1COc2cc(C(F)(F)C(F)(F)F)ccc21` [Example 130, (S)-4-amino-N-methy 1-N-(6-(perfluoroethyl)-2,3-dihydrobenzofuran-3-yl)imidazo[1,5-a]quinoxaline-8-carbox amide], the IC50 in [1] came to 5.8 nM; in [3], 1290 nM. In [2], the bioavailability turned out to be 77.5%.

For `CN(C(=O)c1cc2c(cc1C#N)nc(N)c1cncn12)[C@@H]1COc2cc(C(F)(F)F)ccc21` [Example 14, (S)-4-amino-7-cyano-N-methyl-N-(6-(trifluoromethyl)-2,3-dihydrobenzofuran-3-yl)imi dazo[1,5-a]quinoxaline-8-carboxamide], the IC50 is 898 nM in data set [4], 79.5 nM with U87MG MTAP(-/-) cells and 5.56 nM in the data set with LN18 MTAP(-/-) cells.

In the case of `CC(=O)O[C@H]1C(=O)[C@@]2(C)[C@H]([C@H](OC(=O)c3ccccc3)[C@]3(O)C[C@H](OC(=O)[C@H](O)[C@@H](NC(=O)c4ccccc4)c4ccccc4)C(C)=C1C3(C)C)[C@]1(OC(C)=O)CO[C@@H]1C[C@@H]2O` [Paclitaxel, reference compound], the IC50 was found to be 0.9 nM with BxPc-3; 20.6 nM with LN-18; 1.8 nM with MKN-45; 4.1 nM with ACHN; 2.5 nM with SW1573; 9.8 nM in the data set with Calu-1. Also, the IC50 with SK-MEL-5 amounted to 7.8 nM; in the data set on LU99 it was 1.5 nM; with NCI-H647, 1.4 nM; with SU-DHL-10, 2.8 nM; in the data set with SU-DHL-4 it was 1.9 nM; in the data set with A549 it was 1.9 nM. Besides, the IC50 in the data set on SW780 is 1.6 nM; in the data set on U87MG MTAP(-/-) cells, 5.55 nM; with CFPAC-1, 1.1 nM; in the data set on Aspc-1, 3.4 nM; in the data set with U87MG, 5.2 nM; with MDA-MB-231 it was 2.5 nM. Also, the figures for the concentration for half-maximal inhibition (IC50) with DOHH-2 and in the data set on PSN-1 were 3.4 nM and 2.9 nM, respectively.
